Read-outs that look alike come from different tables or passages of the source.
What was measured:
activated human C1 = target: T1, activated human C1 (Homo sapiens, UniProt P09871); test: Test Code 026 (C1 inhibitor); assay type: biochemical; details: serial twofold dilution assay; higher well number indicates higher activity
T1 sequence (P09871 16-437 limits assumed): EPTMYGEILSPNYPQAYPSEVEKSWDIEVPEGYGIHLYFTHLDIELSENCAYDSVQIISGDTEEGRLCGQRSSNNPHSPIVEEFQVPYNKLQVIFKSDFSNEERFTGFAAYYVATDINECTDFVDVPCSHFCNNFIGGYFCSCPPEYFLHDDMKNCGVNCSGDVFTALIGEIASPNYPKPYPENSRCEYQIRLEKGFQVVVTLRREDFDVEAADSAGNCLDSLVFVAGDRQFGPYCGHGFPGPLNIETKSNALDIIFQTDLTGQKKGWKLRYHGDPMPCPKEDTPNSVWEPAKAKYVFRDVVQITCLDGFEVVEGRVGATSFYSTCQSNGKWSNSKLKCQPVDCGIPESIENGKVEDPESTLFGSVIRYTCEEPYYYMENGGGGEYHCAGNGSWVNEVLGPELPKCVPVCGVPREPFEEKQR
T1 sequence (P09871 438-688 limits assumed): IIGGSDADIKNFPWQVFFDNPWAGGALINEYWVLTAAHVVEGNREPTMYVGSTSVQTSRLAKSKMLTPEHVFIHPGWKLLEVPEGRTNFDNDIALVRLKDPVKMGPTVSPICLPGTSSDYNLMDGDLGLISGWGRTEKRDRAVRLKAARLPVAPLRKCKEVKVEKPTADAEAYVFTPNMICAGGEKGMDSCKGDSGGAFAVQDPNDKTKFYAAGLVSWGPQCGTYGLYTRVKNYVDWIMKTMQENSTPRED

[1] = tested on: late components of human complement (C3-C9); test: Test Code 035 (C3-C9 inhibitor), lysis of EAC 142; assay type: biochemical; details: serial twofold dilution assay; higher well number indicates higher activity
[2] = tested on: complement activity of sera; test: Guinea Pig Intraperitoneal Test (GPIP); assay type: in vivo; details: Cavia porcellus, ip, 200 mg/kg i.p., capillary complement assay
Experimental: Percent inhibition is calculated by comparison with simultaneous controls.

[3] = blood 2 hours after injection, read-out: in vivo Activity Guinea Pig % Inhibition Intraperitoneal, 2 hours
[4] = blood 6 hours after injection, read-out: in vivo Activity Guinea Pig % Inhibition Intraperitoneal, 6 hours
[5] = blood 24 hours after injection, read-out: in vivo Activity Guinea Pig % Inhibition Intraperitoneal, 24 hours

| Structure (SMILES) | in vitro Activity Cl 026 Wells (activated human C1) [Wells] | in vitro Activity C-Late 035 Wells [1] [Wells] | inhibition at 200 mg/kg [2, 3] [%] | inhibition at 200 mg/kg [2, 4] [%] | inhibition at 200 mg/kg [2, 5] [%] |
| --- | --- | --- | --- | --- | --- |
| O=C(CCC(=O)Nc1ccc(S[C@@H]2O[C@H](COS(=O)(=O)O)[C@@H](O[C@H]3O[C@H](COS(=O)(=O)O)[C@@H](OS(=O)(=O)O)[C@H](OS(=O)(=O)O)[C@H]3OS(=O)(=O)O)[C@H](OS(=O)(=O)O)[C@H]2OS(=O)(=O)O)cc1)Nc1ccc(S[C@@H]2O[C@H](COS(=O)(=O)O)[C@@H](O[C@H]3O[C@H](COS(=O)(=O)O)[C@@H](OS(=O)(=O)O)[C@H](OS(=O)(=O)O)[C@H]3OS(=O)(=O)O)[C@H](OS(=O)(=O)O)[C@H]2OS(=O)(=O)O)cc1 [Tetradecasodium N,N'--bis[4-[2,3,6-tri-O--sulfo-4-O--(2,3,4,6-tetra-O--sulfo-α-D-glucopyranosyl)-β -D-glucopyranosylthio]phenyl]butanediamide] | 10.2 | 1.4 | – | – | – |
| O=C(CCCCCCC(=O)Nc1ccc(S[C@@H]2O[C@H](COS(=O)(=O)O)[C@@H](O[C@H]3O[C@H](COS(=O)(=O)O)[C@@H](OS(=O)(=O)O)[C@H](OS(=O)(=O)O)[C@H]3OS(=O)(=O)O)[C@H](OS(=O)(=O)O)[C@H]2OS(=O)(=O)O)cc1)Nc1ccc(S[C@@H]2O[C@H](COS(=O)(=O)O)[C@@H](O[C@H]3O[C@H](COS(=O)(=O)O)[C@@H](OS(=O)(=O)O)[C@H](OS(=O)(=O)O)[C@H]3OS(=O)(=O)O)[C@H](OS(=O)(=O)O)[C@H]2OS(=O)(=O)O)cc1.[Na].[Na].[Na].[Na].[Na].[Na].[Na].[Na].[Na].[Na].[Na].[Na].[Na].[Na] [Tetradecasodium N,N'-bis[4-[2,3,6-tri-O-sulfo-4-O-(2,3,4,6-tetra-O-sulfo-α-D-glucopyranosyl)-β-D-glucopyranosylthio]phenyl]octanediamide] | 9 | 1.5 | 87 | 71 | 44 |
| O=C(CCCCCCCCC(=O)Nc1ccc(S[C@@H]2O[C@H](COS(=O)(=O)O)[C@@H](O[C@H]3O[C@H](COS(=O)(=O)O)[C@@H](OS(=O)(=O)O)[C@H](OS(=O)(=O)O)[C@H]3OS(=O)(=O)O)[C@H](OS(=O)(=O)O)[C@H]2OS(=O)(=O)O)cc1)Nc1ccc(S[C@@H]2O[C@H](COS(=O)(=O)O)[C@@H](O[C@H]3O[C@H](COS(=O)(=O)O)[C@@H](OS(=O)(=O)O)[C@H](OS(=O)(=O)O)[C@H]3OS(=O)(=O)O)[C@H](OS(=O)(=O)O)[C@H]2OS(=O)(=O)O)cc1.[Na].[Na].[Na].[Na].[Na].[Na].[Na].[Na].[Na].[Na].[Na].[Na].[Na].[Na] [tetradecasodium N,N'-bis[4-[2,3,6-tri-O-sulfo-4-O-(2,3,4,6-tetra-O-sulfo-α-D-glucopyranosyl)-β-D-glucopyranosylthio]phenyl]decanediamide] | 5.0 | 0.8 | 88 | 87 | 75 |
| O=C(Nc1ccc(S[C@@H]2O[C@H](COS(=O)(=O)O)[C@@H](O[C@H]3O[C@H](COS(=O)(=O)O)[C@@H](OS(=O)(=O)O)[C@H](OS(=O)(=O)O)[C@H]3OS(=O)(=O)O)[C@H](OS(=O)(=O)O)[C@H]2OS(=O)(=O)O)cc1)C(=O)Nc1ccc(S[C@@H]2O[C@H](COS(=O)(=O)O)[C@@H](O[C@H]3O[C@H](COS(=O)(=O)O)[C@@H](OS(=O)(=O)O)[C@H](OS(=O)(=O)O)[C@H]3OS(=O)(=O)O)[C@H](OS(=O)(=O)O)[C@H]2OS(=O)(=O)O)cc1.[Na].[Na].[Na].[Na].[Na].[Na].[Na].[Na].[Na].[Na].[Na].[Na].[Na].[Na] [tetradecasodium N,N'-bis[4-[2,3,6-tri-O-sulfo-4-O-(2,3,4,6-tetra-O-sulfo-α-D-glucopyranosyl)-β-D-glucopyranosylthio]phenyl]ethanediamide] | 9.5 | 1.2 | 90 | 90 | 80 |
| O=C(CCCCCC(=O)Nc1ccc(S[C@@H]2O[C@H](COS(=O)(=O)O)[C@@H](O[C@H]3O[C@H](COS(=O)(=O)O)[C@@H](OS(=O)(=O)O)[C@H](OS(=O)(=O)O)[C@H]3OS(=O)(=O)O)[C@H](OS(=O)(=O)O)[C@H]2OS(=O)(=O)O)cc1)Nc1ccc(S[C@@H]2O[C@H](COS(=O)(=O)O)[C@@H](O[C@H]3O[C@H](COS(=O)(=O)O)[C@@H](OS(=O)(=O)O)[C@H](OS(=O)(=O)O)[C@H]3OS(=O)(=O)O)[C@H](OS(=O)(=O)O)[C@H]2OS(=O)(=O)O)cc1.[Na].[Na].[Na].[Na].[Na].[Na].[Na].[Na].[Na].[Na].[Na].[Na].[Na].[Na] [tetradecasodium N,N'-bis[4-[2,3,6-tri-O-sulfo-4-O-(2,3,4,6-tetra-O-sulfo-α-D-glucopyranosyl)-β-D-glucopyranosylthio]phenyl]heptanediamide] | 10.7 | 1.0 | 87 | 87 | 50 |
| O=C(CCCCCCCCCCCCC(=O)Nc1ccc(S[C@@H]2O[C@H](COS(=O)(=O)O)[C@@H](O[C@H]3O[C@H](COS(=O)(=O)O)[C@@H](OS(=O)(=O)O)[C@H](OS(=O)(=O)O)[C@H]3OS(=O)(=O)O)[C@H](OS(=O)(=O)O)[C@H]2OS(=O)(=O)O)cc1)Nc1ccc(S[C@@H]2O[C@H](COS(=O)(=O)O)[C@@H](O[C@H]3O[C@H](COS(=O)(=O)O)[C@@H](OS(=O)(=O)O)[C@H](OS(=O)(=O)O)[C@H]3OS(=O)(=O)O)[C@H](OS(=O)(=O)O)[C@H]2OS(=O)(=O)O)cc1.[Na].[Na].[Na].[Na].[Na].[Na].[Na].[Na].[Na].[Na].[Na].[Na].[Na].[Na] [tetradecasodium N,N'-bis[4-[2,3,6-tri-O-sulfo-4-O-(2,3,4,6-tetra-O-sulfo-α-D-glucopyranosyl)-β-D-glucopyranosylthio]phenyl]tetradecanediamide] | 7 | 3.0 | – | – | – |
| O=C(CCCC(=O)Nc1ccc(S[C@@H]2O[C@H](COS(=O)(=O)O)[C@@H](O[C@@H]3O[C@H](COS(=O)(=O)O)[C@@H](OS(=O)(=O)O)[C@H](OS(=O)(=O)O)[C@H]3OS(=O)(=O)O)[C@H](OS(=O)(=O)O)[C@H]2OS(=O)(=O)O)cc1)Nc1ccc(S[C@@H]2O[C@H](COS(=O)(=O)O)[C@@H](O[C@@H]3O[C@H](COS(=O)(=O)O)[C@@H](OS(=O)(=O)O)[C@H](OS(=O)(=O)O)[C@H]3OS(=O)(=O)O)[C@H](OS(=O)(=O)O)[C@H]2OS(=O)(=O)O)cc1.[Na].[Na].[Na].[Na].[Na].[Na].[Na].[Na].[Na].[Na].[Na].[Na].[Na].[Na] [tetradecasodium N,N'-bis[4-[2,3,6-tri-O-sulfo-4-O-(2,3,4,6-tetra-O-sulfo-β-D-glucopyranosyl)-β-D-glucopyranosylthio]phenyl]pentanediamide] | 12 | 2.0 | – | – | – |
